In this test the target is Protease (Human immunodeficiency virus 1, UniProt Q9YQ12).
Protease, sequence (Q9YQ12 whole entry): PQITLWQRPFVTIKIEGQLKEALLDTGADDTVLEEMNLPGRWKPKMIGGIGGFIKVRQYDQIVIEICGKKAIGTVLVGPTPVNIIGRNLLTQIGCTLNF

For the compound `Nc1ncnc2c1ncn2CCOCP(=O)(O)O` [ADEFOVIR], the response was half-maximal at 16 µM (EC50).

The values are drawn from ChEMBL document CHEMBL5725610, “Phosphonate compounds” (2018).
